Assay results: the NIST ThermoML archive (doi:10.1021/je100864e)

Assay: mn = molality of the nth substance listed, in mol/kg
Conditions: 101 kPa, Liquid; for speed of sound: Pulse-echo method

O=C([O-])CC(O)(CC(=O)[O-])C(=O)O.[Na+].[Na+] [disodium hydrogen citrate] + O
mass density [kg/m3]
Conditions	288.15 K	293.15 K	298.15 K	303.15 K	308.15 K
m1 = 0.0095	1000.55	999.632	998.455	997.044	995.414
m1 = 0.0114	1000.84	999.92	998.74	997.324	995.691
m1 = 0.0133	1001.13	1000.21	999.021	997.605	995.97
m1 = 0.015	1001.38	1000.46	999.268	997.849	996.213
m1 = 0.0172	1001.71	1000.78	999.588	998.164	996.524
m1 = 0.0187	1001.93	1000.99	999.8	998.374	996.735
m1 = 0.021	1002.28	1001.35	1000.15	998.719	997.077
m1 = 0.0229	1002.56	1001.62	1000.42	998.99	997.344
m1 = 0.0267	1003.12	1002.18	1000.97	999.532	997.881
m1 = 0.0307	1003.73	1002.77	1001.56	1000.12	998.461
m1 = 0.0344	1004.28	1003.32	1002.1	1000.65	998.99
m1 = 0.0374	1004.73	1003.76	1002.54	1001.09	999.421
m1 = 0.057	1007.64	1006.63	1005.38	1003.9	1002.21
m1 = 0.0771	1010.58	1009.54	1008.25	1006.75	1005.03
m1 = 0.0953	1013.22	1012.15	1010.84	1009.31	1007.58
m1 = 0.1157	1016.16	1015.05	1013.71	1012.16	1010.4
m1 = 0.1332	1018.67	1017.54	1016.17	1014.59	1012.82
m1 = 0.1542	1021.64	1020.48	1019.09	1017.48	1015.68
m1 = 0.1773	1024.9	1023.7	1022.26	1020.63	1018.81
m1 = 0.1964	1027.57	1026.33	1024.88	1023.22	1021.38
m1 = 0.2144	1030.07	1028.81	1027.33	1025.66	1023.8
m1 = 0.2229	1031.25	1029.97	1028.48	1026.8	1024.93
m1 = 0.2509	1035.09	1033.78	1032.26	1030.54	1028.64
m1 = 0.283	1039.47	1038.11	1036.55	1034.8	1032.87
m1 = 0.2965	1041.3	1039.92	1038.34	1036.58	1034.63
m1 = 0.3375	1046.82	1045.39	1043.77	1041.96	1039.98

O=C([O-])CC(O)(CC(=O)O)C(=O)O.[Na+] [sodium dihydrogen citrate] + O
Conditions	mass density, 288.15 K [kg/m3]	mass density, 293.15 K [kg/m3]	mass density, 298.15 K [kg/m3]	mass density, 303.15 K [kg/m3]	mass density, 308.15 K [kg/m3]	speed of sound, 288.15 K [m/s]	speed of sound, 293.15 K [m/s]	speed of sound, 298.15 K [m/s]	speed of sound, 303.15 K [m/s]	speed of sound, 308.15 K [m/s]
m1 = 0.0093	1000.17	999.26	998.086	996.675	995.048	1467.7	1483.7	1497.9	1510.2	1520.8
m1 = 0.0117	1000.44	999.519	998.341	996.93	995.3	1467.9	1483.9	1498.1	1510.4	1521
m1 = 0.0125	1000.53	999.616	998.436	997.022	995.39	1468	1484	1498.2	1510.5	1521.1
m1 = 0.0138	1000.68	999.756	998.576	997.161	995.527	1468.1	1484.1	1498.3	1510.6	1521.2
m1 = 0.0155	1000.87	999.956	998.772	997.353	995.72	1468.3	1484.3	1498.5	1510.8	1521.4
m1 = 0.0163	1000.97	1000.04	998.856	997.436	995.802	1468.4	1484.4	1498.5	1510.8	1521.4
m1 = 0.0187	1001.24	1000.31	999.125	997.702	996.063	1468.7	1484.7	1498.8	1511	1521.6
m1 = 0.0202	1001.42	1000.49	999.296	997.872	996.232	1468.9	1484.8	1498.9	1511.2	1521.8
m1 = 0.0209	1001.49	1000.56	999.364	997.94	996.299	1468.9	1484.9	1499	1511.3	1521.8
m1 = 0.024	1001.85	1000.91	999.72	998.29	996.648	1469.3	1485.2	1499.3	1511.5	1522.1
m1 = 0.0279	1002.29	1001.35	1000.15	998.715	997.067	1469.8	1485.6	1499.7	1511.9	1522.4
m1 = 0.0327	1002.84	1001.89	1000.68	999.246	997.594	1470.2	1486	1500.1	1512.3	1522.8
m1 = 0.0376	1003.39	1002.44	1001.22	999.776	998.119	1470.8	1486.6	1500.6	1512.7	1523.2
m1 = 0.0409	1003.78	1002.82	1001.6	1000.15	998.486	1471.1	1486.9	1500.9	1513.1	1523.5
m1 = 0.047	1004.47	1003.49	1002.27	1000.81	999.141	1471.8	1487.6	1501.5	1513.6	1524
m1 = 0.0681	1006.85	1005.84	1004.59	1003.11	1001.41	1474	1489.7	1503.5	1515.5	1525.8
m1 = 0.0937	1009.71	1008.67	1007.38	1005.86	1004.15	1476.8	1492.3	1505.9	1517.8	1527.9
m1 = 0.1194	1012.55	1011.47	1010.14	1008.6	1006.86	1479.5	1494.8	1508.3	1520	1530.1
m1 = 0.144	1015.25	1014.13	1012.77	1011.2	1009.44	1482	1497.2	1510.5	1522.1	1532
m1 = 0.1678	1017.83	1016.68	1015.29	1013.7	1011.91	1484.6	1499.6	1512.7	1524.2	1534
m1 = 0.1911	1020.35	1019.17	1017.76	1016.13	1014.32	1487	1501.8	1514.9	1526.2	1535.8
m1 = 0.2165	1023.07	1021.86	1020.42	1018.77	1016.93	1489.5	1504.1	1517	1528.2	1537.8
m1 = 0.2412	1025.7	1024.45	1022.98	1021.31	1019.45	1492	1506.5	1519.3	1530.3	1539.8
m1 = 0.2934	1031.2	1029.89	1028.36	1026.63	1024.72	1497.3	1511.5	1524	1534.7	1543.9
m1 = 0.3205	1034.04	1032.69	1031.13	1029.38	1027.44	1500	1514	1526.3	1537	1546
m1 = 0.3395	1036.01	1034.64	1033.06	1031.28	1029.33	1501.8	1515.8	1528	1538.5	1547.5
m1 = 0.3728	1039.43	1038.03	1036.41	1034.6	1032.62	1505.1	1518.8	1530.9	1541.2	1550
m1 = 0.3936	1041.57	1040.14	1038.5	1036.67	1034.67	1507.1	1520.7	1532.7	1542.9	1551.6
